# US8410117B2, “Imidazopyrimidine derivatives” (Hoffmann-La Roche Inc., priority 2010, dated 2013)
# Biological target: T1, human PDE10A (Homo sapiens, UniProt Q9Y233)
# T1 construct: The human PDE10A full length assay; purchased Enzo Life Science, Lausen, Switzerland SE-534
# Assay: human PDE10A full length Scintillation Proximity Assay (SPA)
# Type: biochemical
# Details: 50 nM cGMP and 50 nM [3H]-cGMP, 20 minutes at room temperature; read-out: PDE10A inhibition IC50
# Description: The following test was carried out in order to determine the activity of the compounds of the present invention. PDE10 activity of the compounds of the present invention was determined using a Scintillation Proximity Assay (SPA)-based method similar to the one previously described (Fawcett, L. et al., Proc Natl Acad Sci USA (2000) 97(7):3702-3707).
# The human PDE10A full length assay was performed in 96-well micro titer plates. The reaction mixture of 50 μl contained 20 mM HEPES pH=7.5/10 mM MgCl2/0.05 mg/ml BSA (Sigma cat. #A-7906), 50 nM cGMP (Sigma, cat. #G6129) and 50 nM [^3H]-cGMP (GE Healthcare, cat. #TRK392 S.A. 13.2 Ci/mmol), 3.75 ng/well PDE10A enzyme (Enzo Life Science, Lausen, Switzerland cat #SE-534) with or without a specific test compound. A range of concentrations of the potential inhibitor was used to generate data for calculating the concentration of inhibitor resulting in 50% of the effect (e.g. IC50, the concentration of the competitor inhibiting PDE10A activity by 50%). Non-specific activity was tested without the enzyme. The reaction was initiated by the addition of the substrate solution (cGMP and [^3H]-cGMP) and allowed to progress for 20 minutes at room temperature. The reaction was terminated by adding 25 μl of YSi-SPA scintillation beads (GE Healthcare, cat. #RPNQ0150) in 18 mM zinc sulphate solution (stop reagent). After 1 h under shaking, the plate was centrifuged one minute at 170 g to allow beads to settle. Afterwards, radioactive counts were measured on a Perkin Elmer TopCount Scintillation plate reader.
# T1 sequence (Q9Y233 1-779 isoform Q9Y233-1): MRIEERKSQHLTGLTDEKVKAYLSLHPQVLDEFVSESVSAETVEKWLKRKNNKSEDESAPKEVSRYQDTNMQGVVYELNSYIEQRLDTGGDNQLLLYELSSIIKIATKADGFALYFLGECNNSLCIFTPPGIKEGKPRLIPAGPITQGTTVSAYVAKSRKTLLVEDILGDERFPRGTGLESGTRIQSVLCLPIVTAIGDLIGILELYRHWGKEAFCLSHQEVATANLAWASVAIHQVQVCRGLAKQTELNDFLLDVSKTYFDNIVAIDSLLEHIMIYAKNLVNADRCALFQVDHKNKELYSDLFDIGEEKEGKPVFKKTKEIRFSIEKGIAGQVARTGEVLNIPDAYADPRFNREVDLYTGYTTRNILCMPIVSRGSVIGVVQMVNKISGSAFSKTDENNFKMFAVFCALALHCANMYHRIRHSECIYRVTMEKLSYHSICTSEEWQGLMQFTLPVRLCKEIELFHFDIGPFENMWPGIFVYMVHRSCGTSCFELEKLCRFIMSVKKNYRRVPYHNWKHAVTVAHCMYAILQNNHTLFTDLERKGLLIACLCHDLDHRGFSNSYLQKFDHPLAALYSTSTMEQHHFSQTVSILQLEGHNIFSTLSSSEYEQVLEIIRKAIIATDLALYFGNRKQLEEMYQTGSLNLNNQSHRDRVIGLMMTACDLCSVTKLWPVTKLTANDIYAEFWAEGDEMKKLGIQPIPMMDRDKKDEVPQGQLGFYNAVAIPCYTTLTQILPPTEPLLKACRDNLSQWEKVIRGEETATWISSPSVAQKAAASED
row,SMILES,IC50
1,"CCN(C)C(=O)c1cn(C)nc1C(=O)Nc1ccn2cc(-c3ccccc3)nc2n1 [Example 68, 1-Methyl-1H-pyrazole-3,4-dicarboxylic acid 4-(ethyl-methyl-amide) 3-[(2-phenyl-imidazo[1,2-a]pyrimidin-7-yl)-amide]]",37.7 nM
2,"CCn1ncc(C(=O)N2CCC2)c1C(=O)Nc1ccn2cc(-c3ccccc3)nc2n1 [Example 69, 4-(Azetidine-1-carbonyl)-2-ethyl-2H-pyrazole-3-carboxylic acid (2-phenyl-imidazo[1,2-a]pyrimidin-7-yl)-amide]",4.4 nM
3,"CN(CCC#N)C(=O)c1cnn(C)c1C(=O)Nc1ccn2cc(-c3ccccc3)nc2n1 [Example 70, 2-Methyl-2H-pyrazole-3,4-dicarboxylic acid 4-[(2-cyano-ethyl)-methyl-amide]3-[(2-phenyl-imidazo[1,2-a]pyrimidin-7-yl)-amide]]",33.2 nM
4,"CC(C)CN(C)C(=O)c1cnn(C)c1C(=O)Nc1ccn2cc(-c3ccccc3)nc2n1 [Example 71, 2-Methyl-2H-pyrazole-3,4-dicarboxylic acid 4-(isobutyl-methyl-amide) 3-[(2-phenyl-imidazo[1,2-a]pyrimidin-7-yl)-amide]]",17.6 nM
5,"Cn1ncc(C(=O)NCC(C)(C)O)c1C(=O)Nc1ccn2cc(-c3ccccc3)nc2n1 [Example 72, 2-Methyl-2H-pyrazole-3,4-dicarboxylic acid 4-[(2-hydroxy-2-methyl-propyl)-amide]3-[(2-phenyl-imidazo[1,2-a]pyrimidin-7-yl)-amide]]",463 nM
6,"CCN(C)C(=O)c1cnn(CC)c1C(=O)Nc1ccn2cc(-c3ccccc3)nc2n1 [Example 73, 2-Ethyl-2H-pyrazole-3,4-dicarboxylic acid 4-(ethyl-methyl-amide) 3-[(2-phenyl-imidazo[1,2-a]pyrimidin-7-yl)-amide]]",2.8 nM
7,"Cn1ncc(C(=O)N2CCC2)c1C(=O)Nc1ccn2cc(-c3ccc(Cl)s3)nc2n1 [Example 74, 4-(Azetidine-1-carbonyl)-2-methyl-2H-pyrazole-3-carboxylic acid [2-(5-chloro-thiophen-2-yl)-imidazo[1,2-a]pyrimidin-7-yl]-amide]",4 nM
8,"CN(C)C(=O)c1cnn(C)c1C(=O)Nc1ccn2cc(-c3ccccc3)nc2n1 [Example 75, 2-Methyl-2H-pyrazole-3,4-dicarboxylic acid 4-dimethylamide 3-[(2-phenyl-imidazo[1,2-a]pyrimidin-7-yl)-amide]]",4.9 nM
9,"O=C(Nc1ccn2cc(-c3ccccc3)nc2n1)c1nc(C2CC2)ccc1Nc1cncnc1 [Example 77, 6-Cyclopropyl-3-(pyrimidin-5-ylamino)-pyridine-2-carboxylic acid (2-phenyl-imidazo[1,2-a]pyrimidin-7-yl)-amide]",6.3 nM
10,"Cn1ncc(C(=O)N2CCC2)c1C(=O)Nc1ccn2cc(-c3cccc(OCF)c3)nc2n1 [Example 82, 4-(Azetidine-1-carbonyl)-N-(2-(3-(fluoromethoxy)phenyl)imidazo[1,2-a]pyrimidin-7-yl)-1-methyl-1H-pyrazole-5-carboxamide]",3.4 nM
11,"Cn1ncc(C(=O)N2CCC2)c1C(=O)Nc1ccn2cc(-c3cccc(O)c3)nc2n1 [Example 83, 4-(Azetidine-1-carbonyl)-2-methyl-2H-pyrazole-3-carboxylic acid [2-(3-hydroxy-phenyl)-imidazo[1,2-a]pyrimidin-7-yl]-amide]",3.4 nM
12,"CN(C)C(=O)c1cnn(C)c1C(=O)Nc1ccn2cc(-c3cccc(O)c3)nc2n1 [Example 84, 2-Methyl-2H-pyrazole-3,4-dicarboxylic acid 4-dimethylamide 3-{[2-(3-hydroxy-phenyl)-imidazo[1,2-a]pyrimidin-7-yl]-amide}]",3.8 nM
13,"COc1cccc(-c2cn3ccc(NC(=O)c4c(C(=O)N(C)C)cnn4C)nc3n2)c1 [Example 85, 2-Methyl-2H-pyrazole-3,4-dicarboxylic acid 4-dimethylamide 3-{[2-(3-methoxy-phenyl)-imidazo[1,2-a]pyrimidin-7-yl]-amide}]",4 nM
14,"CCN(C)C(=O)c1cnn(C)c1C(=O)Nc1ccn2cc(-c3cccc(OCF)c3)nc2n1 [Example 86, N-4-Ethyl-N5-(2-(3-(fluoromethoxy)phenyl)imidazo[1,2-a]pyrimidin-7-yl)-N4,1-dimethyl-1H-pyrazole-4,5-dicarboxamide]",5.2 nM
15,"CCN(C)C(=O)c1cnn(C)c1C(=O)Nc1ccn2cc(-c3cccc(OC)c3)nc2n1 [Example 87, N-4-ethyl-N5-(2-(3-methoxyphenyl)imidazo[1,2-a]pyrimidin-7-yl)-N-4,1-dimethyl-1H-pyrazole-4,5-dicarboxamide]",5.5 nM
16,"CN(C)C(=O)c1cnn(C)c1C(=O)Nc1ccn2cc(-c3cccc(OCF)c3)nc2n1 [Example 88, 2-Methyl-2H-pyrazole-3,4-dicarboxylic acid 4-dimethylamide 3-{[2-(3-fluoromethoxy-phenyl)-imidazo[1,2-a]pyrimidin-7-yl]-amide}]",5.7 nM
17,"CCN(C)C(=O)c1cnn(C)c1C(=O)Nc1ccn2cc(-c3cccc(OCCF)c3)nc2n1 [Example 89, 2-Methyl-2H-pyrazole-3,4-dicarboxylic acid 4-(ethyl-methyl-amide) 3-({2-[3-(2-fluoro-ethoxy)-phenyl]imidazo[1,2-a]pyrimidin-7-yl}-amide)]",6.1 nM
18,"Cn1ncc(C(=O)N2CC(F)C2)c1C(=O)Nc1ccn2cc(-c3cccc(OCCF)c3)nc2n1 [Example 90, 4-(3-Fluoro-azetidine-1-carbonyl)-2-methyl-2H-pyrazole-3-carboxylic acid {2-[3-(2-fluoro-ethoxy)-phenyl]imidazo[1,2-a]pyrimidin-7-yl}-amide]",6.1 nM
19,"Cn1ncc(C(=O)N2CCC2)c1C(=O)Nc1ccn2cc(-c3cccc(F)c3)nc2n1 [Example 91, 4-(Azetidine-1-carbonyl)-2-methyl-2H-pyrazole-3-carboxylic acid [2-(3-fluoro-phenyl)-imidazo[1,2-a]pyrimidin-7-yl]-amide]",6.1 nM
20,"Cn1ncc(C(=O)N2CC(F)C2)c1C(=O)Nc1ccn2cc(-c3cccc(F)c3)nc2n1 [Example 92, 4-(3-Fluoro-azetidine-1-carbonyl)-2-methyl-2H-pyrazole-3-carboxylic acid [2-(3-fluoro-phenyl)-imidazo[1,2-a]pyrimidin-7-yl]-amide]",6.5 nM
21,"CC(=O)Oc1cccc(-c2cn3ccc(NC(=O)c4c(C(=O)N(C)C)cnn4C)nc3n2)c1 [Example 93, 3-(7-(4-(dimethylcarbamoyl)-1-methyl-1H-pyrazole-5-carboxamido)imidazo[1,2-a]pyrimidin-2-yl)phenyl acetate]",8.3 nM
22,"CN(C)C(=O)c1cnn(C)c1C(=O)Nc1ccn2cc(-c3cccc(F)c3)nc2n1 [Example 94, 2-Methyl-2H-pyrazole-3,4-dicarboxylic acid 4-dimethylamide 3-{[2-(3-fluoro-phenyl)-imidazo[1,2-a]pyrimidin-7-yl]amide}]",11.2 nM
23,"CN(CCF)C(=O)c1cnn(C)c1C(=O)Nc1ccn2cc(-c3ccccc3)nc2n1 [Example 95, 2-Methyl-2H-pyrazole-3,4-dicarboxylic acid 4-[(2-fluoro-ethyl)-methyl-amide]3-[(2-phenyl-imidazo[1,2-a]pyrimidin-7-yl)-amide]]",12.2 nM
24,"COCCN(C)C(=O)c1cnn(C)c1C(=O)Nc1ccn2cc(-c3cccc(OCCF)c3)nc2n1 [Example 96, 2-Methyl-2H-pyrazole-3,4-dicarboxylic acid 3-({2-[3-(2-fluoro-ethoxy)-phenyl]-imidazo[1,2-a]pyrimidin-7-yl}-amide) 4-[(2-methoxy-ethyl)-methyl-amide]]",12.6 nM
25,"CCN(C)C(=O)c1cnn(C)c1C(=O)Nc1ccn2cc(-c3cccc(F)c3)nc2n1 [Example 97, 2-Methyl-2H-pyrazole-3,4-dicarboxylic acid 4-(ethyl-methyl-amide) 3-{[2-(3-fluoro-phenyl)-imidazo[1,2-a]pyrimidin-7-yl]-amide}]",14.7 nM
26,"COc1cccc(-c2cn3ccc(NC(=O)c4c(C(=O)N5CC(F)C5)cnn4C)nc3n2)c1 [Example 98, 4-(3-Fluoro-azetidine-1-carbonyl)-2-methyl-2H-pyrazole-3-carboxylic acid [2-(3-methoxy-phenyl)-imidazo[1,2-a]pyrimidin-7-yl]-amide]",14.7 nM
27,"COCCN(C)C(=O)c1cnn(C)c1C(=O)Nc1ccn2cc(-c3cccc(OCF)c3)nc2n1 [Example 99, 2-Methyl-2H-pyrazole-3,4-dicarboxylic acid 3-{[2-(3-fluoromethoxy-phenyl)-imidazo[1,2-a]pyrimidin-7-yl]-amide}-4-[(2-methoxy-ethyl)-methyl-amide]]",19 nM
28,"CCN(C)C(=O)c1cnn(C)c1C(=O)Nc1ccn2cc(-c3cccc(OCC(=O)OC)c3)nc2n1 [Example 100, [3-(7-{[4-(Ethyl-methyl-carbamoyl)-2-methyl-2H-pyrazole-3-carbonyl]-amino}-imidazo[1,2-a]pyrimidin-2-yl)-phenoxy]-acetic acid methyl ester]",21.8 nM
